# ChEMBL document CHEMBL1201862, “PubChem BioAssay data set” (2004)
#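 How tested: cells in 96-well plates exposed to compound for 48 hours at five concentrations. GI50 marks 50% less growth.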 Active and inactive are the calls of the source. Rule as the data show it: active = GI50 up to about 1.1 µM and inactive = higher.
# Columns and labels:
# Experiment in all cases: growth of human tumour cells (NCI), 48 h
# [1] = tested on: 786-0
# [2] = tested on: A498
# [3] = tested on: A549
# [4] = tested on: ACHN
# [5] = tested on: CAKI-1
# [6] = tested on: CCRF-CEM
# [7] = tested on: COLO 205
# [8] = tested on: DLD-1
# [9] = tested on: DMS-273
# [10] = tested on: EKVX
# [11] = tested on: HCC 2998
# [12] = tested on: HCT-116
# [13] = tested on: HCT-15
# [14] = tested on: HL-60
# [15] = tested on: HOP-18
# [16] = tested on: HOP-62
# [17] = tested on: HOP-92
# [18] = tested on: HT-29
# [19] = tested on: IGROV-1
# [20] = tested on: K562
# [21] = tested on: KM-20L2
# [22] = tested on: KM12
# [23] = tested on: LOX IMVI
# [24] = tested on: LXFL 529
# [25] = tested on: M14
# [26] = tested on: M19-MEL
# [27] = tested on: MOLT-4
# [28] = tested on: Malme-3M
# [29] = tested on: NCI-H226
# [30] = tested on: NCI-H23
# [31] = tested on: NCI-H460
# [32] = tested on: NCI-H522
# [33] = tested on: OVCAR-3
# [34] = tested on: OVCAR-4
# [35] = tested on: OVCAR-5
# [36] = tested on: OVCAR-8
# [37] = tested on: RPMI-8226
# [38] = tested on: RXF 393
# [39] = tested on: SF-268
# [40] = tested on: SF-295
# [41] = tested on: SF-539
# [42] = tested on: SK-MEL-28
# [43] = tested on: SK-MEL-2
# [44] = tested on: SK-MEL-5
# [45] = tested on: SK-OV-3
# [46] = tested on: SN12C
# [47] = tested on: SNB-19
# [48] = tested on: SNB-75
# [49] = tested on: SNB-78
# [50] = tested on: SR
# [51] = tested on: SW-620
# [52] = tested on: TK-10
# [53] = tested on: U-251
# [54] = tested on: UACC-257
# [55] = tested on: UACC-62
# [56] = tested on: UO-31
# [57] = tested on: XF498
smiles,measurement,setting,value
C/C(=N\N=C(N)N)c1sc(-c2nc(C)c(/C(C)=N/N=C(N)N)s2)nc1C,GI50,[1],> 47.9 µM (inactive)
same,GI50,[2],> 100 µM (inactive)
same,GI50,[3],> 100 µM (inactive)
same,GI50,[4],> 100 µM (inactive)
same,GI50,[5],> 100 µM (inactive)
same,GI50,[6],> 60.7 µM (inactive)
same,GI50,[7],> 52.5 µM (inactive)
same,GI50,[8],> 51.2 µM (inactive)
same,GI50,[9],> 100 µM (inactive)
same,GI50,[10],> 100 µM (inactive)
same,GI50,[11],> 100 µM (inactive)
same,GI50,[12],> 100 µM (inactive)
same,GI50,[13],> 46 µM
same,GI50,[14],24.4 µM (inactive)
same,GI50,[15],> 100 µM (inactive)
same,GI50,[16],> 100 µM (inactive)
same,GI50,[17],> 100 µM (inactive)
same,GI50,[18],> 66.8 µM (inactive)
same,GI50,[19],> 100 µM (inactive)
same,GI50,[20],> 67.8 µM (inactive)
same,GI50,[21],> 100 µM (inactive)
same,GI50,[22],> 36.2 µM (inactive)
same,GI50,[23],> 42.5 µM (inactive)
same,GI50,[24],> 88.3 µM (inactive)
same,GI50,[25],> 100 µM (inactive)
same,GI50,[26],> 100 µM (inactive)
same,GI50,[27],> 57.9 µM (inactive)
same,GI50,[28],> 100 µM (inactive)
same,GI50,[29],> 100 µM (inactive)
same,GI50,[30],> 100 µM (inactive)
same,GI50,[31],> 62.5 µM (inactive)
same,GI50,[32],36 µM (inactive)
same,GI50,[33],> 85.5 µM (inactive)
same,GI50,[34],> 85.5 µM (inactive)
same,GI50,[35],> 100 µM (inactive)
same,GI50,[36],> 100 µM (inactive)
same,GI50,[37],39.3 µM (inactive)
same,GI50,[38],> 45.4 µM (inactive)
same,GI50,[39],> 100 µM (inactive)
same,GI50,[40],> 100 µM (inactive)
same,GI50,[41],> 100 µM (inactive)
same,GI50,[42],> 100 µM (inactive)
same,GI50,[43],> 100 µM (inactive)
same,GI50,[44],> 100 µM (inactive)
same,GI50,[45],> 100 µM (inactive)
same,GI50,[46],> 100 µM (inactive)
same,GI50,[47],> 100 µM (inactive)
same,GI50,[48],> 84.3 µM (inactive)
same,GI50,[49],> 100 µM (inactive)
same,GI50,[50],> 45.6 µM (inactive)
same,GI50,[51],> 100 µM (inactive)
same,GI50,[52],> 100 µM (inactive)
same,GI50,[53],> 95.3 µM (inactive)
same,GI50,[54],> 100 µM (inactive)
same,GI50,[55],> 100 µM (inactive)
same,GI50,[56],> 91 µM (inactive)
same,GI50,[57],> 100 µM (inactive)
CC1=CC2C(=O)N(c3ccccc3)C(=O)C2CC1n1[nH]c(=O)n(Cc2ccccc2)c1=O (stereo unspecified),GI50,[1],> 100 µM (inactive)
same,GI50,[2],> 100 µM (inactive)
same,GI50,[3],> 100 µM (inactive)
same,GI50,[4],> 100 µM (inactive)
same,GI50,[5],> 100 µM (inactive)
same,GI50,[6],> 100 µM (inactive)
same,GI50,[7],> 100 µM (inactive)
same,GI50,[8],> 100 µM (inactive)
same,GI50,[9],> 100 µM (inactive)
same,GI50,[10],> 100 µM (inactive)
same,GI50,[11],> 100 µM (inactive)
same,GI50,[12],> 100 µM (inactive)
same,GI50,[13],> 100 µM
same,GI50,[14],> 100 µM (inactive)
same,GI50,[15],> 100 µM (inactive)
same,GI50,[16],> 100 µM (inactive)
same,GI50,[17],> 100 µM (inactive)
same,GI50,[18],> 100 µM (inactive)
same,GI50,[19],> 100 µM (inactive)
same,GI50,[20],> 100 µM (inactive)
same,GI50,[21],> 100 µM (inactive)
same,GI50,[22],> 100 µM (inactive)
same,GI50,[23],> 100 µM (inactive)
same,GI50,[24],> 100 µM (inactive)
same,GI50,[25],> 100 µM (inactive)
same,GI50,[28],> 100 µM (inactive)
same,GI50,[29],> 100 µM (inactive)
same,GI50,[30],> 100 µM (inactive)
same,GI50,[31],> 100 µM (inactive)
same,GI50,[32],> 100 µM (inactive)
same,GI50,[33],> 100 µM (inactive)
same,GI50,[34],> 100 µM (inactive)
same,GI50,[35],> 100 µM (inactive)
same,GI50,[36],> 100 µM (inactive)
same,GI50,[38],> 100 µM (inactive)
same,GI50,[39],> 100 µM (inactive)
same,GI50,[40],> 100 µM (inactive)
same,GI50,[41],> 100 µM (inactive)
same,GI50,[42],> 100 µM (inactive)
same,GI50,[43],> 100 µM (inactive)
same,GI50,[44],> 100 µM (inactive)
same,GI50,[45],> 100 µM (inactive)
same,GI50,[46],> 100 µM (inactive)
same,GI50,[47],> 100 µM (inactive)
same,GI50,[48],> 100 µM (inactive)
same,GI50,[49],> 100 µM (inactive)
same,GI50,[50],> 100 µM (inactive)
same,GI50,[51],> 100 µM (inactive)
same,GI50,[52],> 100 µM (inactive)
same,GI50,[53],> 100 µM (inactive)
same,GI50,[54],> 100 µM (inactive)
same,GI50,[55],> 100 µM (inactive)
same,GI50,[56],> 100 µM (inactive)
same,GI50,[57],> 100 µM (inactive)
